# Data from US20220313707A1 (priority 2021, published 2022).
# Test system: influenza A Hp1N1 virus
# Parameters: species or system mice
# Conditions: mouse, in vivo
Structure (SMILES),14 d survival rate [%],Mean days of survival [days],Survival number (pcs.),Survival rate (%)
CC1(C)C(=O)N(c2ccc(C#N)c(C(F)(F)F)c2F)C(=S)N1c1ccc(CCCc2ncco2)nc1 [Proxalutamide],40,11.0 ± 2.83,4,40
CC1(C)C(=O)N(c2ccc(C#N)c(C(F)(F)F)c2)C(=S)N1c1ccc(OC[C@@H](O)CO)cc1 [SHR-3680],50,11.3 ± 2.87,5,50
